According to the supplement of paper PMC10733146:

Experiments:
Test in all cases: viability relative to DMSO control (fraction); higher = less drug effect (more viable cells)
Conditions in all cases: 48 h
[1] = system: primary DLBCL patient cells (S082)
Summary of the method: (§1)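 Primary mononuclear tumour cells (Ficoll-isolated from blood or bone marrow, or processed lymph node; fresh or cryopreserved) were plated at 4 × 10^4 cells per well in 384-well plates with pre-plated compounds at five concentrations, one well each. Medium was RPMI-1640 with penicillin/streptomycin, L-glutamine and human serum, at 37 °C and 5% CO2 for 48 h. Viability was read as CellTiter-Glo luminescence relative to the median of 16 inner DMSO wells.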

[2] = system: primary B-PLL patient cells (S016)
Summary of the method: as §1

[3] = system: primary AML patient cells (S011)
Summary of the method: as §1

[4] = system: primary FL patient cells (S087)
Summary of the method: as §1

[5] = system: primary MCL patient cells (S041)
Summary of the method: as §1

[6] = system: primary DLBCL patient cells (S076)
Summary of the method: as §1

[7] = system: primary T-NHL patient cells (S058)
Summary of the method: as §1

[8] = system: primary T-PLL patient cells (S008)
Summary of the method: as §1

[9] = system: primary AML patient cells (S007)
Summary of the method: as §1

[10] = system: primary AML patient cells (S006)
Summary of the method: as §1

[11] = system: primary AML patient cells (S081)
Summary of the method: as §1

[12] = system: primary ALL patient cells (S088)
Summary of the method: as §1

[13] = system: primary AML patient cells (S055)
Summary of the method: as §1

[14] = system: primary AML patient cells (S009)
Summary of the method: as §1

[15] = system: primary DLBCL patient cells (S049)
Summary of the method: as §1

[16] = system: primary MCL patient cells (S063)
Summary of the method: as §1

[17] = system: primary AML patient cells (S021)
Summary of the method: as §1

[18] = system: primary AML patient cells (S060)
Summary of the method: as §1

Q: Which viability ([1]; 0.016 µM) does the source give for `O=C(Nc1nc2ccccc2n1CCN1CCOCC1)c1cccc([N+](=O)[O-])c1` [IRAK-1/4 INHIBITOR I] here?
A: 0.863

Q: What about the viability ([1]; 0.08 µM) of the same compound?
A: 0.932

Q: What about the viability ([1]; 0.4 µM) of the same compound?
A: 0.926

Q: And the viability ([1]; 2 µM)?
A: 1.02

Q: And the viability ([1]; 10 µM)?
A: 1.07

Q: And the viability ([2]; 0.016 µM)?
A: 0.968

Q: And the viability ([2]; 0.08 µM)?
A: 1.05

Q: What about the viability ([2]; 0.4 µM) of the same compound?
A: 0.969

Q: And the viability ([2]; 2 µM)?
A: 0.937

Q: What about the viability ([2]; 10 µM) of the same compound?
A: 1.04

Q: What about the viability ([3]; 0.016 µM) of the same compound?
A: 0.949

Q: What about the viability ([3]; 0.08 µM) of the same compound?
A: 0.934

Q: What about the viability ([3]; 0.4 µM) of the same compound?
A: 0.972

Q: What about the viability ([3]; 2 µM) of the same compound?
A: 1.11

Q: And the viability ([3]; 10 µM)?
A: 0.878

Q: And the viability ([4]; 0.016 µM)?
A: 0.933

Q: What about the viability ([4]; 0.08 µM) of the same compound?
A: 1.02

Q: What about the viability ([4]; 0.4 µM) of the same compound?
A: 0.989

Q: What about the viability ([4]; 2 µM) of the same compound?
A: 0.994

Q: What about the viability ([4]; 10 µM) of the same compound?
A: 1.08

Q: What about the viability ([5]; 0.016 µM) of the same compound?
A: 0.947

Q: What about the viability ([5]; 0.08 µM) of the same compound?
A: 1.1

Q: What about the viability ([5]; 0.4 µM) of the same compound?
A: 0.955

Q: What about the viability ([5]; 2 µM) of the same compound?
A: 0.981

Q: What about the viability ([5]; 10 µM) of the same compound?
A: 0.993

Q: What about the viability ([6]; 0.016 µM) of the same compound?
A: 0.94

Q: And the viability ([6]; 0.08 µM)?
A: 1.09

Q: And the viability ([6]; 0.4 µM)?
A: 1.01

Q: And the viability ([6]; 2 µM)?
A: 1

Q: And the viability ([6]; 10 µM)?
A: 1.11

Q: What about the viability ([7]; 0.016 µM) of the same compound?
A: 1.05

Q: And the viability ([7]; 0.08 µM)?
A: 1.25

Q: What about the viability ([7]; 0.4 µM) of the same compound?
A: 1.02

Q: And the viability ([7]; 2 µM)?
A: 1.07

Q: What about the viability ([7]; 10 µM) of the same compound?
A: 1.27

Q: And the viability ([8]; 0.016 µM)?
A: 0.933

Q: And the viability ([8]; 0.08 µM)?
A: 1

Q: What about the viability ([8]; 0.4 µM) of the same compound?
A: 0.935

Q: What about the viability ([8]; 2 µM) of the same compound?
A: 0.954

Q: And the viability ([8]; 10 µM)?
A: 1.03

Q: And the viability ([9]; 0.016 µM)?
A: 1.01

Q: And the viability ([9]; 0.08 µM)?
A: 0.989

Q: What about the viability ([9]; 0.4 µM) of the same compound?
A: 0.788

Q: And the viability ([9]; 2 µM)?
A: 0.469

Q: And the viability ([9]; 10 µM)?
A: 0.292

Q: And the viability ([10]; 0.016 µM)?
A: 0.952

Q: What about the viability ([10]; 0.08 µM) of the same compound?
A: 0.975

Q: What about the viability ([10]; 0.4 µM) of the same compound?
A: 0.887

Q: What about the viability ([10]; 2 µM) of the same compound?
A: 0.751

Q: And the viability ([10]; 10 µM)?
A: 0.691

Q: And the viability ([11]; 0.016 µM)?
A: 0.864

Q: And the viability ([11]; 0.08 µM)?
A: 0.93

Q: What about the viability ([11]; 0.4 µM) of the same compound?
A: 0.907

Q: What about the viability ([11]; 2 µM) of the same compound?
A: 0.93

Q: What about the viability ([11]; 10 µM) of the same compound?
A: 0.915

Q: What about the viability ([12]; 0.016 µM) of the same compound?
A: 0.747

Q: And the viability ([12]; 0.08 µM)?
A: 0.862

Q: And the viability ([12]; 0.4 µM)?
A: 0.856

Q: What about the viability ([12]; 2 µM) of the same compound?
A: 0.826

Q: What about the viability ([12]; 10 µM) of the same compound?
A: 0.941

Q: What about the viability ([13]; 0.016 µM) of the same compound?
A: 0.985

Q: What about the viability ([13]; 0.08 µM) of the same compound?
A: 0.994

Q: What about the viability ([13]; 0.4 µM) of the same compound?
A: 1.01

Q: What about the viability ([13]; 2 µM) of the same compound?
A: 1.02

Q: What about the viability ([13]; 10 µM) of the same compound?
A: 0.958

Q: What about the viability ([14]; 0.016 µM) of the same compound?
A: 1.01

Q: And the viability ([14]; 0.08 µM)?
A: 0.993

Q: What about the viability ([14]; 0.4 µM) of the same compound?
A: 0.965

Q: What about the viability ([14]; 2 µM) of the same compound?
A: 0.933

Q: And the viability ([14]; 10 µM)?
A: 0.98

Q: What about the viability ([15]; 0.016 µM) of the same compound?
A: 0.936

Q: And the viability ([15]; 0.08 µM)?
A: 0.955

Q: And the viability ([15]; 0.4 µM)?
A: 0.834

Q: And the viability ([15]; 2 µM)?
A: 0.833

Q: And the viability ([15]; 10 µM)?
A: 0.821

Q: What about the viability ([16]; 0.016 µM) of the same compound?
A: 0.993

Q: What about the viability ([16]; 0.08 µM) of the same compound?
A: 0.961

Q: What about the viability ([16]; 0.4 µM) of the same compound?
A: 1.02

Q: And the viability ([16]; 2 µM)?
A: 1.03

Q: And the viability ([16]; 10 µM)?
A: 1.11

Q: What about the viability ([17]; 0.016 µM) of the same compound?
A: 0.924

Q: And the viability ([17]; 0.08 µM)?
A: 0.954

Q: And the viability ([17]; 0.4 µM)?
A: 0.907

Q: And the viability ([17]; 2 µM)?
A: 0.735

Q: And the viability ([17]; 10 µM)?
A: 0.819

Q: What about the viability ([18]; 0.016 µM) of the same compound?
A: 0.973

Q: And the viability ([18]; 0.08 µM)?
A: 1

Q: And the viability ([18]; 0.4 µM)?
A: 0.974

Q: And the viability ([18]; 2 µM)?
A: 1

Q: And the viability ([18]; 10 µM)?
A: 1.02
